Test results from patent US11981944B2, “Immunogenic arginase peptides” (IO Biotech ApS, priority 2016, dated 2024).

How the values were obtained:
Type in all cases: cell-based, human
[1] = system: PBMCs from healthy donors or cancer patients; experiment: IFNγ ELISPOT on PBMCs after one week peptide and IL-2 stimulation (Example 2); conditions: for spontaneous IFNγ ELISPOT responses against 20-mer library peptides: cancer (melanoma) patient PBMCs, FIG. 9A
Procedure: PBMCs from healthy donors or cancer patients were stimulated with 80 μg of arginase-derived peptides and 120 U/ml IL-2 (Peprotech, London, UK, cat. 200-02) for a week. 4-6×10^5 PBMCs were then placed in the bottom of ELISPOT plate (nitrocellulose bottomed 96-well plates by MultiScreen MAIP […]; Millipore, cat. MSIPN4W50) pre-coated with IFN-y capture Ab (Mabtech, cat. 3420-3-1000) and 1-10 μg of arginase derived peptides were added. PBMCs from each patient and donors were set up in duplicates or triplicates for peptide and control stimulations. Cells were incubated in ELISPOT plates in the presence of an antigen for 14-16 hours after which they are washed off and secondary biotinylated Ab (Mabtech, cat. 3420-6-1000) was added. After 2 h incubation unbound secondary antibody was washed off and streptavidin conjugated alkaline phosphatase (AP) (Mabtech, cat. 3310-10) was added for 1 h. Next, unbound conjugated enzyme is washed off and the assay is developed by adding BCIP/NBT substrate (Mabtech, cat. 3650-10). Developed ELISPOT plates were analysed on CTL ImmunoSpot S6 Ultimate-V analyzer using Immunospot software v5.1. Responses were calculated as the difference between average numbers of spots in wells stimulated with Arginase-1 peptides and control wells. We divided the entire arginase-1 protein sequence into overlapping 20-amino-acid-long peptides, generating a library of 31 peptides covering the whole sequence (SEQ ID NOs 18-48)). Each peptide in the library overlapped with the first 10 amino acids of the following peptide. Using this arginase peptide library and the IFNγ ELISPOT assay, we next screened PBMCs from melanoma patients and healthy donors for spontaneous responses (FIGS. 9A and 9B). The PBMCs were stimulated for one week with a pool of 3-4 adjacent 20-mer arginase library peptides and low-dose IL-2 (120 U/mL). They were then set up for an IFNγ ELISPOT assay to screen for responses against each 20-mer peptide separately. […] Among these overlapping peptides, […]-200), and Arg(191-210) spanned a 50-amino-acid-long region that was deemed a hot-spot region since nearly all patients harbored a response against one or more of these peptides (FIG. 9A). The selected eight peptides were further used to screen for spontaneous immune responses against arginase-1 in PBMCs from eight healthy donors using IFNγ ELISPOT. […] Since we most frequently observed responses against arginase-1 peptides from the hot-spot region, we next analyzed whether longer peptides covering the same sequence could be used instead of four 20-mers. […] We then divided the arginase-1 hot-spot region into two 30-mer peptides that overlapped by 10 amino acids (peptides labelled by reference to start and end position): […]-190) and […]-210). These 30-mer peptides were used to check for responses in selected PBMCs from cancer patients and healthy donors, which had previously shown responses against the 20-mer hot-spot peptides. The PBMCs were stimulated for one week with either […]-190) or […]-210) in the presence of IL-2, and were then used in IFNγ ELISPOT.

[2] = system: TILs from eight melanoma patients; experiment: Intracellular staining for IFNγ and TNFα release in melanoma TILs
Procedure: Flow cytometry analysis was performed on a FACSCantoTM II (BD Biosciences, San Jose CA, USA). Intracellular staining of cell cultures was performed after the cells were stimulated with 20-mere peptides for 5 hours or 30-mere peptides for 8h (BD GolgiPlugTM cat. 555029, was added after the first hour). The cells were then stained for surface markers, then washed and permeabilized by using Fixation/Permeabilization and Permeabilization Buffer (eBioscience, cat. 00-5123-43), according to manufacturer's instructions. Antibodies used: IFNγ-APC (cat. 341117), TNFα-BV421 (cat. 562783), CD4-FITC (cat. 347413), CD8-PerCP (cat. 345774) (all from BD Biosciences). Dead cells were stained using FVS510 (564406, BD Biosciences) according to manufacturer's instructions. To investigate the potential presence of arginase-specific T cells among tumor-infiltrating lymphocytes in cancer, we screened TILs from eight melanoma patients for responses against arginase-1 derived peptides. To this end, we performed intracellular staining for IFNγ and TNFα release in response to peptide stimulation. TILs were thawed and rested overnight without IL-2, and then stimulated for 5 h with three hot-spot immunogenic region 20-mer peptides (peptides labelled by reference to start and end position): […]-200). […] The percentage of IFNγ-producing cells was higher for […]-190) and […]-200) compared to […]-180), and the response against […]-200) was almost twice that against […]-180).

[3] = system: peripheral blood mononuclear cells (PBMC); experiment: IFN-gamma ELISPOT secretion assay on PBMC (Example 1); conditions: for immune responses against overlapping 20mer peptides: PBMC from three cancer patients, FIG. 3; for specific T-cell responses against Arg-derived peptide: IFN-gamma ELISPOT, PBMC from six melanoma patients, FIG. 1

Row | Sequence | immune responses against overlapping 20mer peptides [3] | specific T-cell responses against Arg-derived peptide [3] | also measured
1 | AKDIVYIGLRDVDPGEHYIL (Peptide fragment of human Arginase 1) [Arg1-18, positions 171-190 of human Arginase 1] | Frequent immune responses were detected | – | spontaneous IFNγ ELISPOT responses against 20-mer library peptides [1]: highest and most abundant responses; percentage of IFNγ-producing cells compared to Arg(161-180) ([2]; CD4+ T cells in TILs, 5 h stimulation): higher; IFNγ or TNFα release from CD8+ T cells ([2]; TILs, 5 h peptide stimulation): No IFNγ or TNFα release was observed; IFNγ release from CD4+ T cells ([2]; one of the TIL cultures, 5 h peptide stimulation, FIG. 10A): IFNγ was released from CD4+ T cells
2 | DIMEVNPSL (Peptide fragment of human Arginase 1) [Arg10, positions 274-282 of human Arginase 1] | – | Strong responses | –
3 | DSPFQIVKNPRSVGKASEQL (Peptide fragment of human Arginase 1) [Arg1-7, positions 61-80 of human Arginase 1] | Frequent immune responses were detected | – | –
4 | DVDPGEHYILKTLGIKYFSMTEVDRLGIGK (Peptide fragment of human Arginase 1) [Arg(181-210), 30-mer, positions 181-210 of human Arginase 1] | – | – | IFNγ ELISPOT responses against longer hot-spot peptides ([1]; selected PBMCs from cancer patients and healthy donors, one week stimulation with IL-2, FIG. 10B, 10C): lower than those against the overlapping 20-mer peptides
5 | ELKGKIPDVPGFSWVTPCIS (Peptide fragment of human Arginase 1) [Arg1-16, positions 151-170 of human Arginase 1] | Frequent immune responses were detected | – | –
6 | GDLPFADIPNDSPFQIVKNP (Peptide fragment of human Arginase 1) [Arg1-6, positions 51-70 of human Arginase 1] | Frequent immune responses were detected | – | –
7 | GLLSGLDIM (Peptide fragment of human Arginase 1) [Arg9, positions 268-276 of human Arginase 1] | – | Strong responses | –
8 | GRKKRPIHLSFDVDGLDPSF (Peptide fragment of human Arginase 1) [Arg1-23, positions 221-240 of human Arginase 1] | Frequent immune responses were detected | – | spontaneous IFNγ ELISPOT responses against 20-mer library peptides [1]: highest and most abundant responses
9 | HARVHPDLGVIWVDAHTDIN (Peptide fragment of human Arginase 1) [Arg1-12, positions 111-130 of human Arginase 1] | Frequent immune responses were detected | – | spontaneous IFNγ ELISPOT responses against 20-mer library peptides [1]: highest and most abundant responses
10 | HGQPVSFLLKELKGKIPDVP (Peptide fragment of human Arginase 1) [Arg1-15, positions 141-160 of human Arginase 1] | Frequent immune responses were detected | – | –
11 | HLSFDVDGL (Peptide fragment of human Arginase 1) [Arg6, positions 228-236 of human Arginase 1] | – | Strong responses | –
12 | KTLGIKYFSMTEVDRLGIGK (Peptide frgment of human Arginase 1) [Arg1-20, positions 191-210 of human Arginase 1] | Frequent immune responses were detected | – | spontaneous IFNγ ELISPOT responses against 20-mer library peptides [1]: highest and most abundant responses
13 | LLKELKGKI [Arg3] | – | Strong responses | –
14 | LLSGLDIMEV (Peptide fragment of human Arginase 1) [Arg11, positions 269-278 of human Arginase 1] | – | Strong responses | –
15 | LRKAGLLEKLKEQECDVKDY (Peptide fragment of human Arginase 1) [Arg1-4, positions 31-50 of human Arginase 1] | Frequent immune responses were detected | – | spontaneous IFNγ ELISPOT responses against 20-mer library peptides [1]: highest and most abundant responses
16 | LVLGGDHSL (Peptide fragment of human Arginase 1) [Arg2, positions 95-103 of human Arginase 1] | – | Strong responses | –
17 | MSAKSRTIGIIGAPFSKGQP (Peptide fragment of human Arginase 1) [Arg1-1, positions 1-20 of human Arginase 1] | Frequent immune responses were detected | – | –
18 | SLGKTPEEV (Peptide fragment of human Arginase 1) [Arg7, positions 281-289 of human Arginase 1] | – | Strong responses | –
19 | SLGKTPEEVTRTVNTAVAIT (Peptide fragment of human Arginase 1) [Arg1-29, positions 281-300 of human Arginase 1] | Frequent immune responses were detected | – | –
20 | TEEIYKTGLLSGLDIMEVNP (Peptide fragment of human Arginase 1) [Arg1-27, positions 261-280 of human Arginase 1] | Frequent immune responses were detected | – | spontaneous IFNγ ELISPOT responses against 20-mer library peptides [1]: highest and most abundant responses
21 | TPLTTTSGNLHGQPVSFLLK (Peptide fragment of human Arginase 1) [Arg1-14, positions 131-150 of human Arginase 1] | Frequent immune responses were detected | – | –
22 | VLGGDHSLAI (Peptide fragment of human Arginase 1) [Arg15, positions 96-105 of human Arginase 1] | – | Strong responses | –
23 | VMEETLSYL (Peptide fragment of human Arginase 1) [Arg5, positions 211-219 of human Arginase 1] | – | Strong responses | –
24 | VMEETLSYLLGRKKRPIHLS (Peptide fragment of human Arginase 1) [Arg1-22, positions 211-230 of human Arginase 1] | Frequent immune responses were detected | – | –
25 | YLLGRKKRPI (Peptide fragment of human Arginase 1) [Arg14, positions 218-227 of human Arginase 1] | – | Strong responses | –
